Measured values reported in US12180187B2, “1-phenyl-5-azinylpyrazolyl-3-oxyalkyl acids and their use for controlling unwanted plant growth” (BAYER AKTIENGESELLSCHAFT, priority 2019, dated 2024).

Experiments:
ECHCG [1] = test: Pre-emergence action against ECHCG, 1280 g/ha; assay type: in vivo, Echinochloa crus-galli; conditions: visual scoring after about 3 weeks vs untreated controls, 100% = plants have died, 0% = like control plants
Method in brief: (§1)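 Activity was scored visually as percent versus untreated controls about 3 weeks after treatment (100% = dead plants, 0% = control-like). Compounds, formulated as wettable powders or emulsion concentrates, were sprayed onto the covering soil over freshly sown seeds in sandy loam, with 0.5% additive and 600 L/ha water.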

POAAN [2] = test: Pre-emergence action against POAAN, 1280 g/ha; assay type: in vivo, Poa annua; conditions: visual scoring after about 3 weeks vs untreated controls, 100% = plants have died, 0% = like control plants
Method in brief: as §1

SETVI [3] = test: Pre-emergence action against SETVI, 1280 g/ha; assay type: in vivo, Setaria viridis; conditions: visual scoring after about 3 weeks vs untreated controls, 100% = plants have died, 0% = like control plants
Method in brief: as §1

AMARE [4] = test: Pre-emergence action against AMARE, 1280 g/ha; assay type: in vivo, Amaranthus retroflexus; conditions: scored visually after about 3 weeks vs untreated controls (100% = plants have died)
Method in brief: as §1

MATIN = test: Pre-emergence action against MATIN, 1280 g/ha; assay type: in vivo, Tripleurospermum inodorum (Matricaria inodora); conditions: scored visually after about 3 weeks vs untreated controls (100% = plants have died)
Method in brief: as §1

STEME = test: Pre-emergence action against STEME, 1280 g/ha; assay type: in vivo, Stellaria media; conditions: scored visually after about 3 weeks vs untreated controls (100% = plants have died)
Method in brief: as §1

ALOMY = test: Pre-emergence action at 320 g/ha against ALOMY; assay type: in vivo, Alopecurus myosuroides; conditions: scored visually after about 3 weeks vs untreated controls (100% = plants have died)
Method in brief: (§2)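 WP/EC formulations applied pre-emergence to covering soil, water rate 600 l/ha, 0.5% additive. Greenhouse, ~3 weeks. Visual % damage vs untreated (0–100%).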

AVEFA = test: Pre-emergence action at 320 g/ha against AVEFA; assay type: in vivo; conditions: visual scoring after about 3 weeks vs untreated controls
Method in brief: as §2

DIGSA = test: Pre-emergence action at 320 g/ha against DIGSA; assay type: in vivo, Digitaria sanguinalis; conditions: visual scoring after about 3 weeks vs untreated controls
Method in brief: as §2

SETVI [5] = test: Pre-emergence action at 320 g/ha against SETVI; assay type: in vivo, Setaria viridis; conditions: visual scoring after about 3 weeks vs untreated controls
Method in brief: as §2

AMARE [6] = test: Pre-emergence action at 320 g/ha against AMARE; assay type: in vivo, Amaranthus retroflexus; conditions: visual scoring after about 3 weeks vs untreated controls
Method in brief: as §2

POLCO = test: Pre-emergence action at 320 g/ha against POLCO; assay type: in vivo, Fallopia convolvulus (Polygonum convolvulus); conditions: visual scoring after about 3 weeks vs untreated controls
Method in brief: as §2

POAAN [7] = test: Post-emergence action against POAAN, 1.28 kg/ha; assay type: in vivo, Poa annua; conditions: dosage 1280 g/ha, visual rating about 3 weeks after treatment vs untreated controls
Method in brief: (§3)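 Activity scored visually roughly 3 weeks after treatment against untreated plants (0% = as control, 100% = dead). Plants grown in sandy loam in greenhouse, treated at one-leaf stage, 2–3 weeks post-sowing, with WP/EC spray containing 0.5% additive at 600 l/ha.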

ECHCG [8] = test: Post-emergence action against ECHCG, 1.28 kg/ha; assay type: in vivo, Echinochloa crus-galli; conditions: dosage 1280 g/ha, visual rating about 3 weeks after treatment vs untreated controls
Method in brief: as §3

Compound | Pre-emergence action against ECHCG (ECHCG [1]) [%] | Pre-emergence action against POAAN (POAAN [2]) [%] | Pre-emergence action against SETVI (SETVI [3]) [%] | Pre-emergence action against AMARE (AMARE [4]) [%] | Pre-emergence action against MATIN (MATIN) [%] | Pre-emergence action against STEME (STEME) [%] | Pre-emergence action at 320 g/ha against ALOMY in % (ALOMY) [%] | Pre-emergence action against AVEFA in % (AVEFA) [%] | Pre-emergence action against DIGSA in % (DIGSA) [%] | Pre-emergence action against SETVI in % (SETVI [5]) [%] | Pre-emergence action against AMARE in % (AMARE [6]) [%] | Pre-emergence action against POLCO in % (POLCO) [%] | Post-emergence action against ECHCG (ECHCG [8]) [%] | Post-emergence action against POAAN (POAAN [7]) [%] | also measured
C=CCNC(=O)COc1nn(-c2ccccc2F)c(-c2ccc(F)nc2)c1Br [Example X-001, N-Allyl-2-{[4-bromo-1-(2-fluorophenyl)-5-(6-fluoropyridin-3-yl)-1H-pyrazol-3-yl]oxy}acetamide] |  |  |  |  |  |  |  |  |  |  |  |  |  |  | pest or weed control at 1280 g/ha (ECHCG [1]; Echinochloa crus-galli, 504 h): 100%; pest or weed control at 1280 g/ha (POAAN [2]; Poa annua, 504 h): 100%; pest or weed control at 1280 g/ha (SETVI [3]; Setaria viridis, 504 h): 100%; pest or weed control at 1280 g/ha (AMARE [4]; Amaranthus retroflexus, 504 h): 100%; pest or weed control at 1280 g/ha (MATIN; Tripleurospermum inodorum, 504 h): 90%; pest or weed control at 1280 g/ha (STEME; Stellaria media, 504 h): 100%; pest or weed control at 320 g/ha (ALOMY; Alopecurus myosuroides, 504 h): 100%; pest or weed control at 320 g/ha (AVEFA; Avena fatua, 504 h): 90%; pest or weed control at 320 g/ha (DIGSA; Digitaria sanguinalis, 504 h): 100%; pest or weed control at 320 g/ha (SETVI [5]; Setaria viridis, 504 h): 100%; pest or weed control at 320 g/ha (AMARE [6]; Amaranthus retroflexus, 504 h): 90%; pest or weed control at 320 g/ha (POLCO; Fallopia convolvulus, 504 h): 90%; pest or weed control at 1280 g/ha (POAAN [7]; Poa annua, 504 h): 100%
COC(=O)CNC(=O)COc1nn(-c2ccccc2F)c(-c2ccc(F)nc2)c1Br [Example X-002] | 90 | 100 | 100 | 100 | 90 | 100 | 100 | 100 | 100 | 100 | 100 | 100 | 90 | 100 | 
CS(=O)(=O)NC(=O)COc1nn(-c2ccccc2F)c(-c2ccc(F)nc2)c1Br [Example X-004] | 100 | 100 | 100 | 100 | 100 | 100 | 100 | 90 | 100 | 100 | 90 | 90 | 100 | 100 | 
CN(C)S(=O)(=O)NC(=O)COc1nn(-c2ccccc2F)c(-c2ccc(F)nc2)c1Br [Example X-005] | 100 | 100 | 100 | 100 | 100 | 100 | 100 | 100 | 100 | 100 | 100 | 90 | 100 | 100 | 
COC(=O)CNC(=O)COc1nn(-c2ccccc2F)c(-c2ccc(F)nc2)c1C(F)(F)F [Example X-007] | 100 | 100 | 100 | 100 | 100 | 100 | 100 | 100 | 100 | 100 | 100 | 90 | 100 | 100 | 
